Assay results published in PubChem BioAssay AID1259407 (Chemical Carcinogenesis Research Information System (CCRIS), 2018).
Calls of active or inactive are those of the source. The rule behind the calls is not given here.

Tested on: CCRIS mutagenicity, Ames/micronucleus/aberration tests
Assay: CCRIS mutagenicity studies
[1] = Test System: AMES SALMONELLA TYPHIMURIUM, Strain/Indicator: TA100, Metabolic Activation: NONE, Method: PREINCUBATION
[2] = Test System: AMES SALMONELLA TYPHIMURIUM, Strain/Indicator: TA98, Metabolic Activation: NONE, Method: STANDARD PLATE
[3] = Test System: AMES SALMONELLA TYPHIMURIUM, Strain/Indicator: TA98, Metabolic Activation: RAT, LIVER, S-9, AROCLOR 1254, Method: STANDARD PLATE
[4] = Test System: AMES SALMONELLA TYPHIMURIUM, Strain/Indicator: TA100, Metabolic Activation: NONE, Method: STANDARD PLATE
[5] = Test System: AMES SALMONELLA TYPHIMURIUM, Strain/Indicator: TA100, Metabolic Activation: RAT, LIVER, S-9, AROCLOR 1254, Method: STANDARD PLATE
[6] = Test System: AMES SALMONELLA TYPHIMURIUM, Strain/Indicator: TA102, Metabolic Activation: NONE, Method: STANDARD PLATE
[7] = Test System: AMES SALMONELLA TYPHIMURIUM, Strain/Indicator: TA100, Metabolic Activation: RAT, LIVER, S-9, AROCLOR 1254, Method: PREINCUBATION

## CCN(COC(C)=O)N=O
Test System: UDS RAT UROTHELIAL CELLS, Strain/Indicator: THY INCORP, Metabolic Activation: NONE
  mutagenic call: active; positive

## Cc1ccccc1N=Nc1c(O)ccc2ccccc12
Test System: AMES SALMONELLA TYPHIMURIUM, Strain/Indicator: TA98, Metabolic Activation: HAMSTER, LIVER, S-9, AROCLOR 1254 (30%), Method: PREINCUBATION
  mutagenic call: inactive; negative
Test System: AMES SALMONELLA TYPHIMURIUM, Strain/Indicator: TA98, Metabolic Activation: NONE, Method: PREINCUBATION
  mutagenic call: inactive; negative
Test System: AMES SALMONELLA TYPHIMURIUM, Strain/Indicator: TA98, Metabolic Activation: RAT, LIVER, S-9, AROCLOR 1254 (30%), Method: PREINCUBATION
  mutagenic call: inactive; negative
Test System: AMES SALMONELLA TYPHIMURIUM, Strain/Indicator: TA100, Metabolic Activation: HAMSTER, LIVER, S-9, AROCLOR 1254 (30%), Method: PREINCUBATION
  mutagenic call: active; positive
[1]
  mutagenic call: inactive; negative
Test System: AMES SALMONELLA TYPHIMURIUM, Strain/Indicator: TA100, Metabolic Activation: RAT, LIVER, S-9, AROCLOR 1254 (30%), Method: PREINCUBATION
  mutagenic call: inactive; negative

## CC(C)NCC(O)COc1cccc2c1C=CC2 (configuration not stated)
[2]
  mutagenic call: inactive; negative
[3]
  mutagenic call: inactive; negative
[4]
  mutagenic call: inactive; negative
[5]
  mutagenic call: inactive; negative
[6]
  mutagenic call: inactive; negative
Test System: AMES SALMONELLA TYPHIMURIUM, Strain/Indicator: TA102, Metabolic Activation: RAT, LIVER, S-9, AROCLOR 1254, Method: STANDARD PLATE
  mutagenic call: inactive; negative

## O=C/C=C/c1ccc([N+](=O)[O-])o1
Test System: AMES SALMONELLA TYPHIMURIUM, Strain/Indicator: TA98(1,8-DNP6), Metabolic Activation: NONE, Method: STANDARD PLATE
  mutagenic call: active; positive
Test System: AMES SALMONELLA TYPHIMURIUM, Strain/Indicator: TA98(1,8-DNP6), Metabolic Activation: RAT, LIVER, S-9, 3-METHYLCHOLANTHRENE, Method: STANDARD PLATE
  mutagenic call: active; positive
Test System: AMES SALMONELLA TYPHIMURIUM, Strain/Indicator: TA98(NR), Metabolic Activation: NONE, Method: STANDARD PLATE
  mutagenic call: active; positive
Test System: AMES SALMONELLA TYPHIMURIUM, Strain/Indicator: TA98(NR), Metabolic Activation: RAT, LIVER, S-9, 3-METHYLCHOLANTHRENE, Method: STANDARD PLATE
  mutagenic call: active; positive
[2]
  mutagenic call: active; positive
Test System: AMES SALMONELLA TYPHIMURIUM, Strain/Indicator: TA98, Metabolic Activation: RAT, LIVER, S-9, 3-METHYLCHOLANTHRENE, Method: STANDARD PLATE
  mutagenic call: active; positive
Test System: AMES SALMONELLA TYPHIMURIUM, Strain/Indicator: TA100(1,8-DNP6), Metabolic Activation: NONE, Method: PREINCUBATION
  mutagenic call: active; positive
Test System: AMES SALMONELLA TYPHIMURIUM, Strain/Indicator: TA100(1,8-DNP6), Metabolic Activation: RAT, LIVER, S-9, AROCLOR 1254, Method: PREINCUBATION
  mutagenic call: active; positive
Test System: AMES SALMONELLA TYPHIMURIUM, Strain/Indicator: TA100(NR), Metabolic Activation: NONE, Method: PREINCUBATION
  mutagenic call: active; positive
Test System: AMES SALMONELLA TYPHIMURIUM, Strain/Indicator: TA100(NR), Metabolic Activation: RAT, LIVER, S-9, AROCLOR 1254, Method: PREINCUBATION
  mutagenic call: active; positive
[1]
  mutagenic call: active; positive
[7]
  mutagenic call: active; positive

## Nc1nc2ccc(O)cc2[nH]1
Test System: AMES SALMONELLA TYPHIMURIUM, Strain/Indicator: TA98, Metabolic Activation: RAT, LIVER, S-9, AROCLOR 1254, Method: PREINCUBATION
  mutagenic call: active; positive
[7]
  mutagenic call: inactive; negative

## O=[As](O)(O)O
End Point: IN VITRO CHROMOSOMAL ABERRATIONS, Test System: CHINESE HAMSTER OVARY (CHO), Metabolic Activation: NONE
  mutagenic call: active; positive (structural changes: gaps, breaks)
End Point: IN VITRO MICRONUCLEUS, Test System: CHINESE HAMSTER V-79, Metabolic Activation: NONE
  mutagenic call: active; positive
End Point: In vitro chromosomal aberrations, Test System: Human peripheral lymphocytes, Metabolic Activation: None
  mutagenic call: active; positive
End Point: In vitro micronucleus, Test System: Human peripheral lymphocytes, Metabolic Activation: None
  mutagenic call: active; positive
End Point: In vivo micronucleus, Test System: Bone marrow polychromatic erythrocytes, Species: Mouse, Strain/Sex: C57BI/6J/Female, Route: Oral
  mutagenic call: inactive; negative
[6]
  mutagenic call: inactive; negative
Test System: CHINESE HAMSTER V-79, Strain/Indicator: SP5 V-79 (HPRT)/6-THIOGUANINE, Metabolic Activation: NONE, Method: STANDARD PLATE
  mutagenic call: inactive; negative
Test System: CHINESE HAMSTER V-79, Strain/Indicator: SPD8 V-79 (HPRT)/6-THIOGUANINE, Metabolic Activation: NONE, Method: STANDARD PLATE
  mutagenic call: active; positive
Test System: E. COLI, Strain/Indicator: WP2 UVRA, Metabolic Activation: NONE, Method: SPOT TEST
  mutagenic call: inactive; negative
Test System: MOUSE LYMPHOMA, Strain/Indicator: L5178Y (TK+/TK-), Metabolic Activation: NONE, Method: SUSPENSION/PLATE
  mutagenic call: active; positive

## Cc1cc(N)c([N+](=O)[O-])cc1N
[2]
  mutagenic call: inactive; negative
[3]
  mutagenic call: active; positive
[4]
  mutagenic call: inactive; negative
[5]
  mutagenic call: inactive; negative
Test System: AMES SALMONELLA TYPHIMURIUM, Strain/Indicator: TA1535, Metabolic Activation: NONE, Method: STANDARD PLATE
  mutagenic call: inactive; negative
Test System: AMES SALMONELLA TYPHIMURIUM, Strain/Indicator: TA1535, Metabolic Activation: RAT, LIVER, S-9, AROCLOR 1254, Method: STANDARD PLATE
  mutagenic call: inactive; negative
Test System: AMES SALMONELLA TYPHIMURIUM, Strain/Indicator: TA1537, Metabolic Activation: NONE, Method: STANDARD PLATE
  mutagenic call: inactive; negative
Test System: AMES SALMONELLA TYPHIMURIUM, Strain/Indicator: TA1537, Metabolic Activation: RAT, LIVER, S-9, AROCLOR 1254, Method: STANDARD PLATE
  mutagenic call: active; positive
Test System: AMES SALMONELLA TYPHIMURIUM, Strain/Indicator: TA1538, Metabolic Activation: NONE, Method: STANDARD PLATE
  mutagenic call: inactive; negative
Test System: AMES SALMONELLA TYPHIMURIUM, Strain/Indicator: TA1538, Metabolic Activation: RAT, LIVER, S-9, AROCLOR 1254, Method: STANDARD PLATE
  mutagenic call: active; positive
